In PubChem BioAssay (NCI):
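48-hour exposure; five concentrations; linearly interpolated endpoints. GI50: concentration for 50% inhibition of growth. Definition used: TGI = concentration required for complete inhibition of growth.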 Where a SMILES comes first, the peptide text is derived from it. [ ]: non-standard residue; d: D form. The star is where a group is joined. ξ: configuration not given here. Propanoyl(3-(4-MeO-Ph)) = COc1ccc(CCC(=O)*)cc1; Thr(3ξ) = CC(O)[C@H](N)C(=O)O; dNMeL = CN[C@H](CC(C)C)C(=O)O; ξLac = CC(O)C(=O)O

Tests used:
Assay in all cases: DTP human tumour cell line panel, 48 h
EKVX NSCLC = system: EKVX NSCLC
OVCAR-8 ovarian = system: OVCAR-8 ovarian
SF-268 CNS = system: SF-268 CNS
OVCAR-5 ovarian = system: OVCAR-5 ovarian
TK-10 renal = system: TK-10 renal
MALME-3M melanoma = system: MALME-3M melanoma
UACC-257 melanoma = system: UACC-257 melanoma
IGROV1 ovarian = system: IGROV1 ovarian
CAKI-1 renal = system: CAKI-1 renal
UO-31 renal = system: UO-31 renal

Compound	TGI (EKVX NSCLC) [µM]	TGI (OVCAR-8 ovarian) [µM]	TGI (SF-268 CNS) [µM]	TGI (OVCAR-5 ovarian) [µM]	TGI (TK-10 renal) [µM]	TGI (MALME-3M melanoma) [µM]	TGI (UACC-257 melanoma) [µM]	TGI (IGROV1 ovarian) [µM]	TGI (CAKI-1 renal) [µM]	TGI (UO-31 renal) [µM]	GI50 (EKVX NSCLC) [µM]	GI50 (OVCAR-8 ovarian) [µM]	GI50 (SF-268 CNS) [µM]	GI50 (OVCAR-5 ovarian) [µM]	GI50 (TK-10 renal) [µM]	GI50 (MALME-3M melanoma) [µM]	GI50 (UACC-257 melanoma) [µM]	GI50 (IGROV1 ovarian) [µM]	GI50 (CAKI-1 renal) [µM]	GI50 (UO-31 renal) [µM]
NC(=O)C[C@H](NC(=O)C1(NC(=O)[C@H](Cc2ccc(CP(=O)(O)O)cc2)NC(=O)C(=O)O)CCCCC1)C(=O)NCCCc1cccc2ccccc12	> 10	> 10	> 10	> 10	> 10	> 10	> 10	> 10	> 10	> 10										
CSC1(SC)N2Cc3ccccc3N=C2C1(c1ccccc1)c1ccccc1	> 89	> 79.6	> 100	> 77.9	> 100	27.6	> 90.2	> 100	> 100	> 100										
C=CCCC(On1c(-c2ccc(Cl)cc2)csc1=S)c1ccccc1 (configuration not stated)	> 100	> 100	> 100	> 100	> 100	98.4	> 100	> 100	> 100	> 100										
O=C(Cn1c(=O)oc2ccc(C(=O)c3ccccc3Cl)cc21)c1ccc([N+](=O)[O-])cc1	> 100	> 100	> 100	> 100	> 100	69.5	90.3	> 100	> 100	> 100										
COC(=O)[C@@H](NC(=O)[C@@H](CC(C)C)N(C)C(=O)[C@@H]1CCCN1C(=O)C(C)O)C(C)OC(=O)CCc1ccc(OC)cc1 (some centres not stated) (H-[ξLac]P[dNMeL][Thr(3ξ)](Propanoyl(3-(4-MeO-Ph)))-OMe)	> 100	> 100	> 100	> 100	> 100	> 100	> 100	> 100	> 100	> 100										
CC(C)=CCCC1(Sc2ccccc2)C(=O)OCC1C=C(C)C (configuration not stated)	79.7	> 100	> 100	59	> 100	40.7	83	60.4	> 100	> 100										
COc1cc(C2c3cc4c(cc3OC3(OC)COC(=O)C23)OCO4)cc(OC)c1OC (configuration not stated)	> 72.1	6.12	> 85.6	> 89.2	> 100	> 100	> 100	> 100	> 90.2	> 100										
CCOc1cc2c(cc1O)CC[C@@H]1[C@@H]2CC[C@]2(C)C(OS(=O)OC3CC[C@@H]4[C@H]5CCc6cc(O)c(OCC)cc6[C@@H]5CC[C@@]34C)CC[C@@H]12 (some centres not stated)	> 37.7	10	> 100	> 57.8	> 100	13.4	> 42.8	25.8	26	27.4										
O=C1OC(c2ccc(Cl)cc2)(c2ccc(Cl)cc2)c2c1ccc1ccccc21	> 100	> 100	> 100	> 100	> 100	> 100	> 100	> 100	> 100	> 100										
Cn1cc(-c2nc(-c3c[nH]c4ccncc34)cs2)c2cc(F)ccc21	3.32	4.79	3.44	3.11	3.69	3.06	3.56	3.41	3.04	2.92	1.72	2.11	1.74	1.68	2.11	1.57	1.97	1.86	1.65	1.57
NC(=O)c1ncn2c(=O)n(CCl)nnc12	> 100	> 100	> 100	> 100	> 100	> 100	> 100	> 100	> 100	> 100										
N#CCSc1c(-c2ccccc2)c(=O)n(-c2ccccc2)c(=S)n1-c1ccccc1	> 100	> 100	> 100	> 100	> 100	> 100	> 100	> 100	> 100	> 100										
COc1ccc(-c2nnc(-c3ccncc3)o2)cc1	> 100	> 100	> 100	> 100	> 100	> 100	> 100	> 100	> 100	> 100										
COC(=O)C(Cc1ccccc1)NC(=O)c1ccc(CNC(=S)NCc2cccc(CNC(=S)NCc3ccccc3)c2)cc1 (configuration not stated)	> 62.5	> 62.5	> 62.5	> 62.5	> 62.5	> 62.5	> 62.5	> 62.5	> 62.5	> 62.5										
Cc1[nH]c(=O)nc2nc3ccc(Cl)cc3c(NC(C)(CO)CO)c12	> 100	> 100	> 100	> 100	> 100	> 100	> 100	> 100	> 100	10.4										
CC(=O)NC(C)c1ccc(N=NN2CCCC2)cc1 (configuration not stated)	> 100	> 100	> 100	> 100	> 100	> 100	> 100	> 100	> 100	> 100										
NNC(=O)CCC(NS(=O)(=O)c1ccc(Cl)cc1)C(=O)NN (configuration not stated)	> 100	> 100	> 100	> 100	> 100	> 100	> 100	> 100	> 100	> 100										
CN(C)CCNC(=O)c1cccc2[nH]c(-c3ccncc3)nc12	73.7	> 40.2	47.4	34.1	16.9	3.75	3.51	> 56.4	5.95	6.76										

Compound	TGI (EKVX NSCLC) [µM]	TGI (OVCAR-8 ovarian) [µM]	TGI (SF-268 CNS) [µM]	TGI (OVCAR-5 ovarian) [µM]	TGI (TK-10 renal) [µM]	TGI (MALME-3M melanoma) [µM]	TGI (UACC-257 melanoma) [µM]	TGI (IGROV1 ovarian) [µM]	TGI (CAKI-1 renal) [µM]	TGI (UO-31 renal) [µM]	GI50 (EKVX NSCLC) [µM]	GI50 (OVCAR-8 ovarian) [µM]	GI50 (SF-268 CNS) [µM]	GI50 (OVCAR-5 ovarian) [µM]	GI50 (TK-10 renal) [µM]	GI50 (MALME-3M melanoma) [µM]	GI50 (UACC-257 melanoma) [µM]	GI50 (IGROV1 ovarian) [µM]	GI50 (CAKI-1 renal) [µM]	GI50 (UO-31 renal) [µM]
Cc1ccc(S(=O)(=O)C2c3nc4ccccc4cc3-c3nc4ccccc4nc32)cc1 (configuration not stated)	> 100	> 100	> 100	> 100	> 100	> 100	> 100	> 100	> 100	> 100										
CCCCC1(N=[N+]=[N-])C(=O)C2C=CC=C3c4ccccc4N(C1=O)C32 (configuration not stated)	> 31.6	> 31.6	> 31.6	> 31.6	> 31.6	> 31.6	30.9	> 31.6	> 31.6	> 31.6										
COc1ccc(-c2nnc(CCCCCCCCc3nnc(-c4ccc(OC)cc4)n3N)n2N)cc1	> 100	> 31.6	> 100	> 100	> 100	> 100	> 100	> 100	> 100	> 100										
COc1ccc(/C(Cl)=C(\C=O)c2ccccc2)cc1OC	> 100	> 100	> 100	> 100	> 100	> 100	> 100	> 100	> 100	> 100										
CC(O)c1cc2c(s1)C(=O)c1scc(C(C)O)c1C2=O (configuration not stated)	2.93	0.857	0.889	3.37	3.37	0.35	0.356	3.63	2.74	1.41										
O=C(NN1C(=O)CSC1c1ccco1)c1ccncc1 (configuration not stated)	> 100	> 100	> 100	> 100	> 100	> 100	> 100	> 100	> 100	> 100										
C/C(=N\NC(=O)c1cccnc1)c1cccc(/C(C)=N/NC(=O)c2cccnc2)n1.CC(=O)[O-].CC(=O)[O-].[Zn+2]	> 100	> 39.4	84.4	> 100	> 100	> 79.9	99.7	> 43.4	31.4	> 100						19.3		10.1		
COc1cc(/C=c2/c3ccccc3n3c2cc(-c2ccccc2)[n+]3C)cc(OC)c1OC	22.4	12.9	22.9	21.4	17.4	5.67	7.68	23	11.8	> 35.9										
O=S(=O)(O)c1cc(Nc2ccnc3ccccc23)c2c(S(=O)(=O)O)cc(S(=O)(=O)O)cc2c1	> 100	> 100	> 100	> 100	> 100	> 100	> 100	> 100	> 100	> 100										
S=c1nc2sc3c(c2c(Nc2ccc(Br)cc2)[nH]1)CCN(N1CCc2c(sc4nc(=S)[nH]c(Nc5ccc(Br)cc5)c24)C1)C3	> 50	> 50	> 50	> 50	> 50	> 50	> 50	> 50	> 50	> 50										
COc1ccc2oc(=Nc3ccc(F)cc3)c(C(N)=O)cc2c1	> 100	> 100	> 100	> 100	58	> 100	> 100	> 100	> 100	> 100										
Clc1cc(OCC23CC4CC(CC(C4)C2)C3)nc(OCC23CC4CC(CC(C4)C2)C3)n1	> 100	> 100	> 100	> 100	> 100	> 100	> 100	> 100	> 100	> 100										
COc1ccc2c(c1)CC1(O)COc3cc(OC)ccc3C1O2 (configuration not stated)	> 100	> 100	> 100	> 100	> 100	> 100	> 100	> 100	> 100	> 100										
COC(=O)[C@@]12OC[C@]34C([C@@H](O)C1O)[C@@]1(C)CC(=O)C(O)=C(C)C1C[C@H]3OC(=O)[C@H](OC(=O)/C=C(/c1ccccc1)C(F)(F)F)[C@H]42 (some centres not stated)	> 25	> 25	> 25	> 25	> 25	5.71	> 25	11.5	> 25	> 25										
Cc1nc2c(Cl)cc(Cl)cc2c(Cl)c1CCCl	> 100	> 100	> 100	> 100	> 100	> 100	> 100	> 100	> 100	> 100										
CCOC(=O)C1C[C@H]2CO[C@H](c3ccccc3)N2C1=O (some centres not stated)	> 100	> 100	> 100	> 100	> 100	> 100	> 100	> 100	> 100	> 100										
N#CCOc1cccc(C2(N3CC=CCC3)CCCCC2)c1	> 100	> 100	> 100	> 100	> 100	> 100	> 100	> 100	> 100	> 100										
